Broadly, the IC50 is the concentration at which inhibition is half-maximal. A low value points to greater potency in that assay.

These results are taken from patent US20150353495A1 (PORTOLA PHARMACEUTICALS, INC., priority 2010, published 2015).

What all share (format): biochemical
Assay [1] deals with T1, JAK1 (Homo sapiens, UniProt P23458).
T1 construct: 5 μl of catalytic domain recombinant Kinase enzyme+Tyr peptide substrate (Invitrogen, CA); purchased Invitrogen
The experiment in a line: Z'-LYTE kinase assay JAK1. An outline of the steps: (§1)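 Z′-LYTE FRET, Tyr6 peptide, recombinant catalytic domain + ATP, 1 h RT, 1% DMSO final, duplicates; protease development 1 h RT; fluorescence read.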

The target in assay [2] is T2, JAK2 (Homo sapiens, UniProt O60674).
T2 construct: 5 μl of catalytic domain recombinant Kinase enzyme+Tyr peptide substrate (Invitrogen, CA); purchased Invitrogen
In words: Z'-LYTE kinase assay JAK2. An outline of the steps: as §1

Assay [3] concerns the target T3, JAK3 (Homo sapiens, UniProt P52333).
T3 construct: 5 μl of catalytic domain recombinant Kinase enzyme+Tyr peptide substrate (Invitrogen, CA); purchased Invitrogen
In words: Z'-LYTE kinase assay JAK3. An outline of the steps: as §1

T3 sequence (P52333 822-1111 limits assumed): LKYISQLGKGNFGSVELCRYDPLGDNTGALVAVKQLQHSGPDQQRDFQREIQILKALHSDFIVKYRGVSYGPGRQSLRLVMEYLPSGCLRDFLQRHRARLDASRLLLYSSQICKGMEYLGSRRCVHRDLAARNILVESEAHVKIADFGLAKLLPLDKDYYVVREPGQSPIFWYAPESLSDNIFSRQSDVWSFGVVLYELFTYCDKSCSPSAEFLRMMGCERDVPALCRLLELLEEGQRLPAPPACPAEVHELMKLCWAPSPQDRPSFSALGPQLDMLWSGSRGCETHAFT
T1 sequence (P23458 875-1153 limits assumed): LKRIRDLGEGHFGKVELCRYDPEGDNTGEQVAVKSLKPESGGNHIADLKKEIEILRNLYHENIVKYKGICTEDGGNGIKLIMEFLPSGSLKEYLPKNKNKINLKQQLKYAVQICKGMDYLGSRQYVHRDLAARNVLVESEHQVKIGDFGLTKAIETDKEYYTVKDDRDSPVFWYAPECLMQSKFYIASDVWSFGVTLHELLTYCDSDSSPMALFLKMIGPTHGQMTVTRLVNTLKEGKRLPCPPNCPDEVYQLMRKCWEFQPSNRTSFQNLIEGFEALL
T2 sequence (O60674 849-1124 limits assumed): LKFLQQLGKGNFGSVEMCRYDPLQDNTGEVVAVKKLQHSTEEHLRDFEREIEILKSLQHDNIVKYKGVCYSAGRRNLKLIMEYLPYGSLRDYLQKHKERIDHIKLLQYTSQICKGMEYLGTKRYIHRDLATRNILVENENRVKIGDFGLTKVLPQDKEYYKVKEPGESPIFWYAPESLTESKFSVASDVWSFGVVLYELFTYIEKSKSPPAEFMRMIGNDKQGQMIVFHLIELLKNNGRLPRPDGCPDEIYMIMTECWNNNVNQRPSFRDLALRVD

As to `NC(=O)c1cnc(Nc2cccc(Cl)c2)cc1NCc1cncc(F)c1` [Example 307, 6-(3-chlorophenylamino)-4-((5-fluoropyridin-3-yl)methylamino)nicotinamide], the IC50 was above 1000 nM in assay [1], 100 to 1000 nM in assay [2] and 10 to 100 nM in assay [3].

In the case of `N#Cc1ccc(Nc2cc(NCc3cncc(F)c3)c(C(N)=O)cn2)cc1` [Example 308, 6-(4-cyanophenylamino)-4-((5-fluoropyridin-3-yl)methylamino)nicotinamide], the IC50 is above 1000 nM in assay [1], above 1000 nM in assay [2] and 10 to 100 nM in assay [3].

Take `NC(=O)c1cnc(Nc2ccc(OC(F)F)cc2)cc1NCc1cncc(F)c1` [Example 309, 6-(4-(difluoromethoxy)phenylamino)-4-((5-fluoropyridin-3-yl)methylamino)nicotinamide]: the IC50 in assay [1] was above 1000 nM; in assay [2] it was 100 to 1000 nM; in assay [3], 10 to 100 nM.

On to `NC(=O)c1cnc(Nc2ccc(OC(F)(F)F)cc2)cc1NCc1cncc(F)c1` [Example 310], for which the results for the IC50 in assay [1], in assay [2] and in assay [3] were above 1000 nM, above 1000 nM and 100 to 1000 nM, respectively.

With `Cc1ccc(Nc2cc(NCc3cncc(F)c3)c(C(N)=O)cn2)cc1` [Example 311, 4-((5-fluoropyridin-3-yl)methylamino)-6-(p-tolylamino)nicotinamide], the figures for the IC50 in assay [1], in assay [2] and in assay [3] were 100 to 1000 nM, 100 to 1000 nM and 10 to 100 nM, respectively.

For the molecule `CN(C)C(=O)c1ccc(Nc2cc(NCc3cncc(F)c3)c(C(N)=O)cn2)cc1` [Example 312, 6-(4-(dimethylcarbamoyl)phenylamino)-4-((5-fluoropyridin-3-yl)methylamino)nicotinamide], the results for the IC50 in assay [1], in assay [2] and in assay [3] were 100 to 1000 nM, 100 to 1000 nM and 1 to 10 nM, respectively.

On to `NC(=O)c1cnc(Nc2ccc(C(=O)NCC(F)(F)F)cc2)cc1NCc1cncc(F)c1` [Example 313, 4-((5-fluoropyridin-3-yl)methylamino)-6-(4-(2,2,2-trifluoroethylcarbamoyl)phenylamino)nicotinamide], for which the IC50 in assay [1] is 100 to 1000 nM; in assay [2], 100 to 1000 nM; in assay [3] it was 10 to 100 nM.

Regarding `CN(CC(F)(F)F)C(=O)c1ccc(Nc2cc(NCc3cncc(F)c3)c(C(N)=O)cn2)cc1` [Example 314, 4-((5-fluoropyridin-3-yl)methylamino)-6-(4-(methyl(2,2,2-trifluoroethyl)carbamoyl)phenylamino)nicotinamide], the IC50 in assay [1] was above 1000 nM; in assay [2], 100 to 1000 nM; in assay [3] it was 10 to 100 nM.

For `COc1ccc(Nc2cc(NCc3cccc(F)n3)c(C(N)=O)cn2)cc1` [Example 315, 4-((6-fluoropyridin-2-yl)methylamino)-6-(4-methoxyphenylamino)nicotinamide], the IC50 in assay [1] is 100 to 1000 nM; in assay [2], 100 to 1000 nM; in assay [3] it was 10 to 100 nM.

Regarding `CN(C)C(=O)c1ccc(Nc2cc(NCc3cccc(F)n3)c(C(N)=O)cn2)cc1` [Example 316, 6-(4-(dimethylcarbamoyl)phenylamino)-4-((6-fluoropyridin-2-yl)methylamino)nicotinamide], the values for the IC50 in assay [1], in assay [2] and in assay [3] were 100 to 1000 nM, 100 to 1000 nM and 1 to 10 nM, respectively.

For the molecule `COc1ccc(Nc2cc(NCc3cccc4ccn(C)c34)c(C(N)=O)cn2)cc1` [Example 317, 6-(4-methoxyphenylamino)-4-((1-methyl-1H-indol-7-yl)methylamino)nicotinamide], the values for the IC50 in assay [1], in assay [2] and in assay [3] were above 1000 nM, above 1000 nM and 100 to 1000 nM, respectively.

For the molecule `CN(C)C(=O)c1ccc(Nc2cc(NCc3cccc4ccn(C)c34)c(C(N)=O)cn2)cc1` [Example 318, 6-(4-(dimethylcarbamoyl)phenylamino)-4-((1-methyl-1H-indol-7-yl)methylamino)nicotinamide], the results for the IC50 in assay [1], in assay [2] and in assay [3] were above 1000 nM, 100 to 1000 nM and 10 to 100 nM, respectively.

In the case of `NC(=O)c1cnc(Nc2cc(F)cc(F)c2)cc1NCc1cccc2[nH]ccc12` [Example 323, 4-((1H-indol-4-yl)methylamino)-6-(3,5-difluorophenylamino)nicotinamide], the IC50 in assay [1] is above 1000 nM; in assay [2] it was above 1000 nM; in assay [3], 100 to 1000 nM.

Regarding `CC(=O)N1CC(c2ccc(Nc3cc(NCc4ccccc4)c(C(N)=O)cn3)cc2)C1` [Example 324, 6-(4-(1-acetylazetidin-3-yl)phenylamino)-4-(benzylamino)nicotinamide], the IC50 in assay [1] fell in the range of 100 to 1000 nM; in assay [2], 100 to 1000 nM; in assay [3], 1 to 10 nM.

Consider `NC(=O)c1cnc(Nc2ccc(C3CNC3)cc2)cc1NCc1ccccc1` [Example 325, 6-(4-(azetidin-3-yl)phenylamino)-4-(benzylamino)nicotinamide], for which the IC50 is above 1000 nM in assay [1], 100 to 1000 nM in assay [2] and 1 to 10 nM in assay [3].

For `CCC(=O)N1CC(c2ccc(Nc3cc(NCc4ccccc4)c(C(N)=O)cn3)cc2)C1` [Example 326, 4-(benzylamino)-6-(4-(1-propionylazetidin-3-yl)phenylamino)nicotinamide], the IC50 in assay [1] lay in the range of 100 to 1000 nM; in assay [2] it was 100 to 1000 nM; in assay [3], 1 to 10 nM.

Take `COC(=O)N1CC(c2ccc(Nc3cc(NCc4ccccc4)c(C(N)=O)cn3)cc2)C1` [Example 327, methyl 3-(4-(4-(benzylamino)-5-carbamoylpyridin-2-ylamino)phenyl)azetidine-1-carboxylate]: the IC50 was above 1000 nM in assay [1], 100 to 1000 nM in assay [2] and 10 to 100 nM in assay [3].

Regarding `CN(C)C(=O)Cc1ccc(Nc2cc(NCc3ccccc3)c(C(N)=O)cn2)cc1` [Example 328, 4-(benzylamino)-6-(4-(2-(dimethylamino)-2-oxoethyl)phenylamino)nicotinamide], the half-maximal inhibitory concentration (IC50) in assay [1] was 100 to 1000 nM; in assay [2], 100 to 1000 nM; in assay [3] it was 1 to 10 nM.

For the molecule `NC(=O)c1cnc(Nc2ccc(CC(=O)N3CCCC3)cc2)cc1NCc1ccccc1` [Example 329, 4-(benzylamino)-6-(4-(2-oxo-2-(pyrrolidin-1-yl)ethyl)phenylamino)nicotinamide], the IC50 in assay [1] was in the range of 100 to 1000 nM; in assay [2], 100 to 1000 nM; in assay [3] it was 1 to 10 nM.

As for `NC(=O)c1cnc(Nc2ccc(CC(=O)N3CCOCC3)cc2)cc1NCc1ccccc1` [Example 330, 4-(benzylamino)-6-(4-(2-morpholino-2-oxoethyl)phenylamino)nicotinamide], the IC50 in assay [1] was in the range of 100 to 1000 nM; in assay [2], 100 to 1000 nM; in assay [3] it was 1 to 10 nM.

On to `CN(C)C(=O)C1CN(c2ccc(Nc3cc(NCc4ccccc4)c(C(N)=O)cn3)cc2)C1` [Example 331, 4-(benzylamino)-6-(4-(3-(dimethylcarbamoyl)azetidin-1-yl)phenylamino)nicotinamide], for which the values for the IC50 in assay [1], in assay [2] and in assay [3] were 100 to 1000 nM, 100 to 1000 nM and 1 to 10 nM, respectively.

With `COc1ccc(Nc2cc(NCc3ccccc3)c(C(N)=O)cn2)cc1Cl` [Example 332, 4-(benzylamino)-6-(3-chloro-4-methoxyphenylamino)nicotinamide], the IC50 is above 1000 nM in assay [1], above 1000 nM in assay [2] and 10 to 100 nM in assay [3].

Regarding `CC(=O)N1CC(c2ccc(Nc3cc(NCc4cncc(F)c4)c(C(N)=O)cn3)cc2)C1` [Example 334, 6-(4-(1-acetylazetidin-3-yl)phenylamino)-4-((5-fluoropyridin-3-yl)methylamino)nicotinamide], the results for the IC50 in assay [1], in assay [2] and in assay [3] were 100 to 1000 nM, 100 to 1000 nM and 10 to 100 nM, respectively.

For the molecule `CS(=O)(=O)N1CC(c2ccc(Nc3cc(NCc4ccccc4)c(C(N)=O)cn3)cc2)C1` [Example 335, 4-(benzylamino)-6-(4-(1-(methylsulfonyl)azetidin-3-yl)phenylamino)nicotinamide], the values for the IC50 in assay [1], in assay [2] and in assay [3] were 100 to 1000 nM, 100 to 1000 nM and 10 to 100 nM, respectively.

Turning to `COCC(=O)N1CC(c2ccc(Nc3cc(NCc4ccccc4)c(C(N)=O)cn3)cc2)C1` [Example 336, 4-(benzylamino)-6-(4-(1-(2-methoxyacetyl)azetidin-3-yl)phenylamino)nicotinamide], the IC50 in assay [1] was in the range of 100 to 1000 nM; in assay [2] it was 100 to 1000 nM; in assay [3] it was 1 to 10 nM.

Regarding `CN(C)C(=O)N1CC(c2ccc(Nc3cc(NCc4ccccc4)c(C(N)=O)cn3)cc2)C1` [Example 337, 4-(benzylamino)-6-(4-(1-(dimethylcarbamoyl)azetidin-3-yl)phenylamino)nicotinamide], the figures for the IC50 in assay [1], in assay [2] and in assay [3] were 100 to 1000 nM, 100 to 1000 nM and 1 to 10 nM, respectively.

In the case of `NC(=O)c1cnc(Nc2ccc(C3CN(C(=O)N4CCCC4)C3)cc2)cc1NCc1ccccc1` [Example 338, 4-(benzylamino)-6-(4-(1-(pyrrolidine-1-carbonyl)azetidin-3-yl)phenylamino)nicotinamide], the IC50 in assay [1] is 100 to 1000 nM; in assay [2], 100 to 1000 nM; in assay [3], 1 to 10 nM.

In the case of `CN(C)S(=O)(=O)N1CC(c2ccc(Nc3cc(NCc4ccccc4)c(C(N)=O)cn3)cc2)C1` [Example 339, 4-(benzylamino)-6-(4-(1-(N,N-dimethylsulfamoyl)azetidin-3-yl)phenylamino)nicotinamide], the half-maximal inhibitory concentration (IC50) was above 1000 nM in assay [1], above 1000 nM in assay [2] and 10 to 100 nM in assay [3].

In the case of `CNC(=O)Cc1ccc(Nc2cc(NCc3ccccc3)c(C(N)=O)cn2)cc1` [Example 340, 4-(benzylamino)-6-(4-(2-(methylamino)-2-oxoethyl)phenylamino)nicotinamide], the IC50 was in the range of 100 to 1000 nM in assay [1], 100 to 1000 nM in assay [2] and 10 to 100 nM in assay [3].

Regarding `NC(=O)c1cnc(Nc2ccc(CC(=O)NCC(F)(F)F)cc2)cc1NCc1ccccc1` [Example 341, 4-(benzylamino)-6-(4-(2-oxo-2-(2,2,2-trifluoroethylamino)ethyl)phenylamino)nicotinamide], the concentration for half-maximal inhibition (IC50) in assay [1] is 100 to 1000 nM; in assay [2], 100 to 1000 nM; in assay [3] it was 1 to 10 nM.
